Assay results as given in PMC11801377, “A uniquely efficacious type of CFTR corrector with complementary mode of action” (Science Advances, 2024).

Experiments:
F508del.L15W-CFTR = assay: Site-directed mutagenesis immunoblotting, HEK-TREx, F508del.L15W-CFTR; assay type: cell-based, human; details: 40 h, 2 μM
Description: (§1) The human CFTR expressing HEK cell pools with the mutations described below were generated by integrase-mediated homologous recombination of the CFTR sequence into the T-REx HEK293 background (Thermo Fisher Scientific). This expression system allows the tetracycline-inducible expression of genes of interest from one defined insertion site. Parental T-REx-HEK293 cells were cultivated in growth medium: Dulbecco’s modified Eagle’s medium + GlutaMAX-I (#31966, Life Technologies), 10% dialyzed FBS (Gibco, #26400), penicillin (100 U/ml), streptomycin (100 μg/ml), hygromycin B (0.1 mg/ml; Life Technologies), blasticidin (5 μg/ml; Invitrogen, #R210-01), and 0.1 mM nonessential amino acid solution (Invitrogen, #11140-035). Recombinant T-REx-HEK-CFTR cells were generated by lipofectamine transfection (Life Technologies) of plasmids containing mutated versions of CFTR (RefSeq NM_000492) and then cultivated in selection medium [growth medium containing Geneticin (1 mg/ml) (Invitrogen, #10131-027) instead of hygromycin]. The plasmid constructs were synthetized by GENEART (Thermo Fisher Scientific) and designed with the WT CFTR intron 5 to 6 (880 nucleotides) to prevent leaky expression issues during the cloning process in bacteria. […]

L206W CFTR = target: T1, L206W CFTR (Homo sapiens, UniProt P13569, L206W); assay: CFTR correction (immunoblotting), HEK-TREx, L206W; assay type: cell-based; details: 48 hours, IDOR-3 2 μM, IDOR-4 0.4 μM, TEZ 2 μM + ELX 0.4 μM
T1 construct: expressed in transfected cells; host or cells: T-REx HEK293
Description: as §1

R347P CFTR = target: T2, R347P CFTR (Homo sapiens, UniProt P13569, R347P); assay: CFTR correction (immunoblotting), HEK-TREx, R347P; assay type: cell-based; details: 48 hours, IDOR-3 2 μM, IDOR-4 0.4 μM, TEZ 2 μM + ELX 0.4 μM
T2 construct: expressed in transfected cells; host or cells: T-REx HEK293
Description: as §1

S945L CFTR = target: T3, S945L CFTR (Homo sapiens, UniProt P13569, S945L); assay: CFTR correction (immunoblotting), HEK-TREx, S945L; assay type: cell-based; details: 48 hours, IDOR-3 2 μM, IDOR-4 0.4 μM, TEZ 2 μM + ELX 0.4 μM
T3 construct: expressed in transfected cells; host or cells: T-REx HEK293
Description: as §1

M1101K CFTR = target: T4, M1101K CFTR (Homo sapiens, UniProt P13569, M1101K); assay: CFTR correction (immunoblotting), HEK-TREx, M1101K; assay type: cell-based; details: 48 hours, IDOR-3 2 μM, IDOR-4 0.4 μM, TEZ 2 μM + ELX 0.4 μM
T4 construct: expressed in transfected cells; host or cells: T-REx HEK293
Description: as §1

R1066C CFTR = target: T5, R1066C CFTR (Homo sapiens, UniProt P13569, R1066C); assay: CFTR correction (immunoblotting), HEK-TREx, R1066C; assay type: cell-based; details: 48 hours, IDOR-3 2 μM, IDOR-4 0.4 μM, TEZ 2 μM + ELX 0.4 μM
T5 construct: expressed in transfected cells; host or cells: T-REx HEK293
Description: as §1

G85E CFTR = target: T6, G85E CFTR (Homo sapiens, UniProt P13569, G85E); assay: CFTR correction (immunoblotting), HEK-TREx, G85E; assay type: cell-based; details: 48 hours, IDOR-3 2 μM, IDOR-4 0.4 μM, TEZ 2 μM + ELX 0.4 μM
T6 construct: expressed in transfected cells; host or cells: T-REx HEK293
Description: as §1

V520F CFTR = target: T7, V520F CFTR (Homo sapiens, UniProt P13569, V520F); assay: CFTR correction (immunoblotting), HEK-TREx, V520F; assay type: cell-based; details: 48 hours, IDOR-3 2 μM, IDOR-4 0.4 μM, TEZ 2 μM + ELX 0.4 μM
T7 construct: expressed in transfected cells; host or cells: T-REx HEK293
Description: as §1

N1303K CFTR = target: T8, N1303K CFTR (Homo sapiens, UniProt P13569, N1303K); assay: CFTR correction (immunoblotting), HEK-TREx, N1303K; assay type: cell-based; details: 48 hours, IDOR-3 2 μM, IDOR-4 0.4 μM, TEZ 2 μM + ELX 0.4 μM
T8 construct: expressed in transfected cells; host or cells: T-REx HEK293
Description: as §1

F508del-CFTR = F508del-CFTR (Homo sapiens, UniProt P13569, DEL508-508); assay: CFTR immunoblotting in HEK-TREx cells expressing F508del-CFTR; assay type: cell-based; design: expressed in transfected cells; host or cells: T-REx HEK293; details: 48 hours, IDOR-3 2 μM, IDOR-4 0.4 μM
Description: as §1

T5 sequence (P13569 whole entry R1066C): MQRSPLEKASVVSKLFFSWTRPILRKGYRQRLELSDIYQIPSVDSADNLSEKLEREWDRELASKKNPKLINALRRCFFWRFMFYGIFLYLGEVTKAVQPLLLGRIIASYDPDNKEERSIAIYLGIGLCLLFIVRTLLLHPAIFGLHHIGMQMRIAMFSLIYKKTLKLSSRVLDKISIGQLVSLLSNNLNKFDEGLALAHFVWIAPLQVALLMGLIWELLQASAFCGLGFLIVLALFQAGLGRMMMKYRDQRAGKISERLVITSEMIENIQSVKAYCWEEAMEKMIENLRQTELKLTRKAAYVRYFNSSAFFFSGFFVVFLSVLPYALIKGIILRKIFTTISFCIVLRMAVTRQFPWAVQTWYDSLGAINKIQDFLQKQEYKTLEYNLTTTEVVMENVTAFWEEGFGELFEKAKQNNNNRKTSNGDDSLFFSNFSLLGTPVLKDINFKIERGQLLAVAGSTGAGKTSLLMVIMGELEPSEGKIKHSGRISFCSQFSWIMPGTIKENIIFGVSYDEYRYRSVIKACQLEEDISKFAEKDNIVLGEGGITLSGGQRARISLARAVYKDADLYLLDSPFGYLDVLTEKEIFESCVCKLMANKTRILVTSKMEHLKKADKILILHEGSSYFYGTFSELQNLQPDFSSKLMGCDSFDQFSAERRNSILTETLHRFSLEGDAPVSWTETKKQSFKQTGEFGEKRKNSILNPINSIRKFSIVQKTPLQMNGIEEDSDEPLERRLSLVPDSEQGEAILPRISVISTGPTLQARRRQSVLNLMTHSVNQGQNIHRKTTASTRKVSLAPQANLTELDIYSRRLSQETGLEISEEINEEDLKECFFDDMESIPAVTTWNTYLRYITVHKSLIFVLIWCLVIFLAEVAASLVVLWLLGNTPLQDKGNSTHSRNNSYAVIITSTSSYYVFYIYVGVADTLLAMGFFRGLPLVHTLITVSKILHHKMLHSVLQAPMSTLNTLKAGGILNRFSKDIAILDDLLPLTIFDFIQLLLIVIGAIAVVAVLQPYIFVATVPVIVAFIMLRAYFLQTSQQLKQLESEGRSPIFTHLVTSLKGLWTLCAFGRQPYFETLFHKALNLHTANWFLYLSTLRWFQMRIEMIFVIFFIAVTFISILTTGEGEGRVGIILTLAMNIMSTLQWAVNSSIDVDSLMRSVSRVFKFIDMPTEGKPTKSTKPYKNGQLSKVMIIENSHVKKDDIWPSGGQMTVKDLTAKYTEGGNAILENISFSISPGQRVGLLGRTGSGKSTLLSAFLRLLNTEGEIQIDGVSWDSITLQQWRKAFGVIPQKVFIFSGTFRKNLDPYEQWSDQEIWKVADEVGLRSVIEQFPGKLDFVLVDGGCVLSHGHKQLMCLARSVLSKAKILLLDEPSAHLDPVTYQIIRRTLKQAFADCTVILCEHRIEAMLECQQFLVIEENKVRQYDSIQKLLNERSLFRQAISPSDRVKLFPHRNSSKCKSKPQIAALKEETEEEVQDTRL
T7 sequence (P13569 whole entry V520F): as the sequence (P13569 whole entry R1066C) above, with V520F, C1066R counted along it
Chain of F508del-CFTR (P13569 with tags, fused parts or gaps DEL508-508): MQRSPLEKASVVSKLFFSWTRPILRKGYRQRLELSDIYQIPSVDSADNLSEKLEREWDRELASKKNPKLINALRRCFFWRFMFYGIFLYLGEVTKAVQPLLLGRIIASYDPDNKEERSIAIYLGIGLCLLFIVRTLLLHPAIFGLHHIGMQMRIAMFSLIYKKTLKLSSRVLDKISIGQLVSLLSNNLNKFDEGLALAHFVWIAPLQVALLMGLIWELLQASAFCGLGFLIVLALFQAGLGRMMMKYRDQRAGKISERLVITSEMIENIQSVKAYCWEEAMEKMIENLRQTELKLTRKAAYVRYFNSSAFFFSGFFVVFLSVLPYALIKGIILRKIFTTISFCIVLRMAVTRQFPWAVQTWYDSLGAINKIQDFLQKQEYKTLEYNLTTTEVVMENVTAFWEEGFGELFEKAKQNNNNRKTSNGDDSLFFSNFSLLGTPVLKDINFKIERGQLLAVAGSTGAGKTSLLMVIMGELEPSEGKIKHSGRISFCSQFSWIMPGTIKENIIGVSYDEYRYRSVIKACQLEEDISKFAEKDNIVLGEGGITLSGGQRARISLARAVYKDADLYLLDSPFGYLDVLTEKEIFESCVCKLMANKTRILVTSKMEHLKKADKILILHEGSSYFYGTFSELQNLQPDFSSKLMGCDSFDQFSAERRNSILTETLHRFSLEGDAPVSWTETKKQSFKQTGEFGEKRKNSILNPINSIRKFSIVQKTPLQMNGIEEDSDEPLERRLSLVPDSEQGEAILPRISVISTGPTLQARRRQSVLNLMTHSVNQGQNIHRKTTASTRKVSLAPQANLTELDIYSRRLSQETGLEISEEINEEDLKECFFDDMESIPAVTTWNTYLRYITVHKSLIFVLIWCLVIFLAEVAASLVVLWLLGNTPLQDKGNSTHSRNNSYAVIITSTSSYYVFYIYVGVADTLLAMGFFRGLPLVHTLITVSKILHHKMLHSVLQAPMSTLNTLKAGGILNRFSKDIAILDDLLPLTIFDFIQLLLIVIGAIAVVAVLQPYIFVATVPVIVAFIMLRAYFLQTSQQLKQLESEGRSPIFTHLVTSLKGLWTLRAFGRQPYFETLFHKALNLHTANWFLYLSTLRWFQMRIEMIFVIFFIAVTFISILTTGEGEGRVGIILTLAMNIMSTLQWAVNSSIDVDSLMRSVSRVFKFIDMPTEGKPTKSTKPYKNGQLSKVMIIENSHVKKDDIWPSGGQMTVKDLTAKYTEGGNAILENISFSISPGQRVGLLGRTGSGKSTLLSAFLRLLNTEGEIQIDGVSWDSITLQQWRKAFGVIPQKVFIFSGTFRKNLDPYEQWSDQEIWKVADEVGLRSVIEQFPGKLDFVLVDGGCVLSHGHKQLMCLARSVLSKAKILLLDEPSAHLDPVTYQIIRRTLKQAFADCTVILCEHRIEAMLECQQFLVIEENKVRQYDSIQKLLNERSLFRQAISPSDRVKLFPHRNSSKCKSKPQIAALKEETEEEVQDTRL
T1 sequence (P13569 whole entry L206W): as the sequence (P13569 whole entry R1066C) above, with L206W, C1066R counted along it
T8 sequence (P13569 whole entry N1303K): as the sequence (P13569 whole entry R1066C) above, with C1066R, N1303K counted along it
T4 sequence (P13569 whole entry M1101K): as the sequence (P13569 whole entry R1066C) above, with C1066R, M1101K counted along it
T3 sequence (P13569 whole entry S945L): as the sequence (P13569 whole entry R1066C) above, with S945L, C1066R counted along it
T2 sequence (P13569 whole entry R347P): as the sequence (P13569 whole entry R1066C) above, with R347P, C1066R counted along it
T6 sequence (P13569 whole entry G85E): as the sequence (P13569 whole entry R1066C) above, with G85E, C1066R counted along it

Compound: COc1cc(CCNC(=O)C2CC(=O)N(C)C(CC(C)C)C(=O)N3CCCCC3C(=O)NC(Cc3ccccc3)COc3ccc4ncc(F)cc4c3C(=O)N2)on1 (stereo not shown) [IDOR-3]
- correction by macrocycles versus [LUM + BAM] (F508del.L15W-CFTR): little difference
- correction of L206W (L206W CFTR): highly effective
- correction of R347P (R347P CFTR): highly effective
- correction of S945L (S945L CFTR): highly effective
- correction of M1101K (M1101K CFTR): highly effective
- correction of R1066C (R1066C CFTR): highly effective
- correction of G85E (G85E CFTR): highly effective
- correction of V520F (V520F CFTR): highly effective
- correction of N1303K (N1303K CFTR): only minor activity
- increase in C-band expression (F508del-CFTR): 9 fold
